What is called Ki is a measure of affinity in units of concentration, obtained from inhibition or displacement. Low values mean higher affinity, high ones lower affinity.

Molecules are shown by their SMILES. Square brackets hold non-standard residues; d marks the D form. Peptide text beside a SMILES is read from it. * marks the point of attachment. Bn = c1ccc(C*)cc1; Ms = CS(=O)(=O)*

The test deals with Calpain-2 catalytic subunit (Sus scrofa). In words: Inhibitory activity against Calpain-II receptor in porcine kidney.
For the molecule `CS(=O)(=O)N[C@H](COCc1ccccc1)C(=O)N[C@H](C=O)Cc1ccc(OCc2ccccc2)cc1` [(R)-3-Benzyloxy-N-[(S)-1-(4-benzyloxy-benzyl)-2-oxo-ethyl]-2-methanesulfonylamino-propionamide] (Ms-[dS](Bn)-Tyr(Bn)-aldehyde), affinity was put at a Ki of 5 nM.
In turn, `CC(OCc1ccccc1)[C@@H](NS(C)(=O)=O)C(=O)N[C@H](C=O)Cc1ccccc1` (stereo partly drawn) [(R)-N-((S)-1-Benzyl-2-oxo-ethyl)-3-benzyloxy-2-methanesulfonylamino-butyramide] registered a Ki of 7 nM.
As for `CS(=O)(=O)N[C@H](COCc1ccccc1)C(=O)N[C@H](C=O)CCCCNS(=O)(=O)c1ccccc1` [(R)-N-((S)-5-Benzenesulfonylamino-1-formyl-pentyl)-3-benzyloxy-2-methanesulfonylamino-propionamide], the figure is 17 nM.
The molecule `CS(=O)(=O)N[C@H](CSCc1ccccc1)C(=O)N[C@H](C=O)Cc1ccccc1` [(S)-N-((S)-1-Benzyl-2-oxo-ethyl)-3-benzylsulfanyl-2-methanesulfonylamino-propionamide] (Ms-[dC](Bn)-Phe-aldehyde) displayed a Ki of 7 nM.

These data come from BindingDB's records for doi:10.1021/jm980035y (Cephalon, 1998).
